Experimental data: patent US8937090B2, “Parakeratosis inhibitor, pore-shrinking agent and external composition for skin” (Shiseido Company, Ltd., priority 2005, dated 2015)

Columns and labels:
panel of 20 women = test: Sensory irritation tests; format: in vivo, human; settings: for sensory irritation: in words, summary of Table 4; for Evaluation (sensory irritation, class of average rating): 1 mL to cheek, rated for ten minutes
Method: 1 mL of a control aqueous solution and the sample aqueous solution prepared in Example 1 were applied using a cotton swab to the left or right cheek, respectively, of each member of a panel of 20 women, and the irritating sensation was evaluated every 30 seconds for ten minutes beginning immediately after application, whereby a final evaluation was reported. The evaluation of the irritating sensation was made based on the following four levels of rating criteria, and the average rating was calculated, whereby the average was classified by the following criteria.
3: Continuation is not possible because of extremely strong irritation, such as tingling sensation, burning sensation, stinging sensation, itching, and the like.
2: Intolerable because of strong irritation, such as tingling sensation, burning sensation, stinging sensation, itching, and the like.
1: Tolerable, but with slight irritation such as tingling sensation, burning sensation, stinging sensation, itching, and the like.
0: Not particularly irritating.
(Evaluation Criteria) • A: average rating of less than 0.2 • B: average rating of from 0.2 to less than 1.0 • C: average rating of from 1.0 to less than 2.0 • D: average rating of 2.0 or greater

hairless mouse (HR-1) = test: Parakeratosis-inhibiting effect test (oleic acid applied to back of hairless mouse; visual rough skin evaluation and parakeratosis value); format: in vivo; settings: for parakeratosis-inhibiting effect: in words, summary of Table 1; for Visual evaluation (average of four animals): rough skin score, control = 2.0, no skin roughness = 0.0, 3 days application after 10 mass % oleic acid; for Parakeratosis value (average of four animals): scale 1.0 to 3.0, higher = parakeratosis advanced, control 2.0
Method: Aqueous solutions (containing 30 mass % of ethanol) of 3 mass % of a β-alanine derivative or salt thereof were prepared mainly as the evaluation sample. The pH was regulated by hydrochloric acid or sodium hydroxide so as to be 7.0 to 7.5. When sample solubility was low, the solution was prepared accordingly.
100 μL of 10 mass % oleic acid solution (solvent: ethanol) were applied to the back of a hairless mouse (HR-1; Hoshino Laboratory Animals). Then the sample solution (β-alanine derivative, and the like) was applied 100 μL at a time. This procedure was continued for three days. […] At the same time, the stratum corneum at the back of the hairless mouse was peeled off with tape, the nuclei were stained by hematoxylin, and the degree of parakeratosis was observed and evaluated by a parakeratosis value within a range of 1.0 to 3.0 (in 0.25 increments).

[1] = tested on: cheeks of healthy human males; test: Human pore-shrinking effect (replica of cheek pores, three-dimensional laser scanning microscope); format: in vivo; settings: for pore-shrinking effect: in words, summary of Table 2; for Replica assessment value (average of n = 5): twice a day for one month, pore size rating (1-13) after minus before application, control 0.3
Method: An experiment was conducted whereby a sample was applied twice a day for one month to the cheeks of healthy human males in groups of 5 men each. Aqueous solutions (containing 15 mass % of ethanol) of 3 mass % of the β-alanine derivative or a salt thereof were prepared mainly as the evaluation sample. The pH was regulated by hydrochloric acid or sodium hydroxide so as to be 7.0 to 7.5. When the sample solubility was low, the solution was prepared accordingly. The control was an aqueous 15% ethanol solution. The sample aqueous solution and the control aqueous solution were applied to one half of the face at a time.
A replica was collected before and after continuous application, and changes in the shape of the pores at the same site were observed using a three-dimensional laser scanning microscope. The size of the pores was visually evaluated in the 13 steps of 1 through 13 (with the pores becoming larger as the numbers became larger), the difference in the ratings before and after application (after application—before application) was calculated, and the efficacy of each sample was studied using this difference as the replica assessment value.

hairless mice (HR-1) = test: Inhibiting effect on rough skin induced by oleic acid application (transepidermal water loss); format: in vivo, mouse; parameters: ΔTEWL value: unit not given here; settings: for rough skin preventing/ameliorating effect (ΔTEWL value versus control aqueous solution): in words, summary of Table 3; for ΔTEWL value: average of four mice, 3 days after 10 mass % oleic acid, control 12.0, increase = rough skin worse
Method: In order to investigate the inhibiting effect of β-alanine derivatives and salts thereof on rough skin induced by oleic acid application, the transepidermal water loss (TEWL value) before and after application was measured, the difference was compared with the control (control aqueous solution), and the effect was determined. […] The TEWL was determined using the TM210 TEWA Meter (Courage+Khazaka Electronic GmBH).
100 μL of 10 mass % oleic acid (solvent: ethanol) was applied to the back of hairless mice (HR-1, four mice per group). Then a sample solution (β-alanine derivatives) was applied 100 μL at a time. This procedure was continued for three days. On the following day, the TEWL value of the back was determined and the values of the four animals were averaged.

| SMILES | sensory irritation (panel of 20 women) | Evaluation (sensory irritation, class of average rating) (panel of 20 women; sample 3 mass %) | parakeratosis-inhibiting effect (hairless mouse (HR-1)) | Visual evaluation (average of four animals) (hairless mouse (HR-1); sample 3 mass %) | Parakeratosis value (average of four animals) (hairless mouse (HR-1); sample 3 mass %) | pore-shrinking effect [1] | Replica assessment value (average of n = 5) ([1]; sample 3 mass %) | rough skin preventing/ameliorating effect (ΔTEWL value versus control aqueous solution) (hairless mice (HR-1)) | ΔTEWL value (hairless mice (HR-1); sample 3 mass %) | Evaluation (sensory irritation, class of average rating) (panel of 20 women; sample 1 mass %) | Visual evaluation (average of four animals) (hairless mouse (HR-1); sample 1 mass %) | Parakeratosis value (average of four animals) (hairless mouse (HR-1); sample 1 mass %) | Replica assessment value (average of n = 5) ([1]; sample 1.0 mass %) | ΔTEWL value (hairless mice (HR-1); sample 1 mass %) | Evaluation (sensory irritation, class of average rating) (panel of 20 women; sample 1.5 mass %) | Visual evaluation (average of four animals) (hairless mouse (HR-1); sample 1.5 mass %) | Parakeratosis value (average of four animals) (hairless mouse (HR-1); sample 1.5 mass %) | ΔTEWL value (hairless mice (HR-1); sample 1.5 mass %) |
| --- | --- | --- | --- | --- | --- | --- | --- | --- | --- | --- | --- | --- | --- | --- | --- | --- | --- | --- |
| O=C(O)CCNc1ccccn1 [N-(2′-pyridyl)-β-alanine] | no problem of sensory irritation | A (average rating of less than 0.2) | reduced the parakeratosis value | 1.4 | 1.3 | effect was seen | −0.8 | effect was seen | 5.5 | – | – | – | – | – | – | – | – | – |
| N=C(N)NCCC(=O)O [3-guanidinopropionic acid, reference compound] | – | – | effect was not seen | 2.1 | 2.1 | – | – | no effect was seen | 12.3 | – | – | – | – | – | – | – | – | – |
| O=C(O)CCNC(=O)c1cccnc1 [N-nicotinoyl-β-alanine] | no problem of sensory irritation | – | reduced the parakeratosis value | – | – | effect was seen | – | effect was seen | – | A (average rating of less than 0.2) | 1.1 | 1.2 | −0.8 | 6.0 | – | – | – | – |
| COc1cccc(C(=O)NCCC(=O)O)c1 [N-(3′-methoxybenzoyl)-β-alanine] | no problem of sensory irritation | A (average rating of less than 0.2) | reduced the parakeratosis value | 1.2 | 1.2 | effect was seen | −1.0 | effect was seen | 6.9 | – | – | – | – | – | – | – | – | – |
| CNCCC(=O)O [N-methyl-β-alanine] | no problem of sensory irritation | A (average rating of less than 0.2) | reduced the parakeratosis value | 1.1 | 1.2 | effect was seen | −1.0 | effect was seen | 6.8 | – | – | – | – | – | – | – | – | – |
| COc1ccc(C(=O)NCCC(=O)O)cc1 [N-(4′-methoxybenzoyl)-β-alanine] | no problem of sensory irritation | – | reduced the parakeratosis value | – | – | effect was seen | – | effect was seen | – | – | – | – | −1.2 | – | A (average rating of less than 0.2) | 1.2 | 1.1 | 5.7 |
| O=C(O)CCNCc1ccccc1 [N-benzyl-β-alanine] | no problem of sensory irritation | A (average rating of less than 0.2) | reduced the parakeratosis value | 1.2 | 1.2 | effect was seen | −0.8 | effect was seen | 8.9 | – | – | – | – | – | – | – | – | – |
| CN(CCC(=O)O)C1CCCCC1 [N-cyclohexyl-N-methyl-β-alanine] | no problem of sensory irritation | A (average rating of less than 0.2) | reduced the parakeratosis value | 1.4 | 1.4 | effect was seen | −0.8 | effect was seen | 5.5 | – | – | – | – | – | – | – | – | – |
| O=C(O)CCNS(=O)(=O)c1ccccc1 [N-benzenesulfonyl-β-alanine] | no problem of sensory irritation | A (average rating of less than 0.2) | reduced the parakeratosis value | 1.1 | 1.2 | effect was seen | −0.7 | effect was seen | 5.4 | – | – | – | – | – | – | – | – | – |
| CC(=O)NCCC(=O)O [N-acetyl-β-alanine, reference compound] | – | – | effect was not seen | 1.8 | 1.7 | – | – | no effect was seen | 12.1 | – | – | – | – | – | – | – | – | – |
| C[C@H](N)C(=O)O [alanine, reference compound] | strong sensory irritation | D (average rating of 2.0 or greater) | – | – | – | – | – | – | – | – | – | – | – | – | – | – | – | – |
| NC(=O)NCCC(=O)O [3-ureidopropionic acid, reference compound] | – | – | effect was not seen | 2.0 | 2.2 | – | – | no effect was seen | 11.9 | – | – | – | – | – | – | – | – | – |
